Key:
Poa annua [1] = assay: Example 1: adjuvants alone, visual % damage, pots in glasshouse; format: in vivo
Experimental: (§1) The effect of different adjuvants (see Table 1 below) on the growth of broadleaf weed and grass species was investigated and compared to untreated (water only) control weeds.
(§2) Plates, each with 48 pots measuring 2.7 cm diameter and 5 cm deep, were filled with TKS1 growing media (Floragard, Germany). Seeds of Taraxacum officinale, Stellaria media or Poa annua were sown on the surface (10 to 20 per pot). Plants were grown in glasshouse at a temperature of 18 to 20° C. and at 60% relative humidity.
(§3) Plants were treated 15 (Stellaria, Poa) and 34 (Taraxacum) days after sowing with 60 μl of a 1.25, 2.5, 5 and 10% (w/v) solution of adjuvant using a hand airbrush.
(§4) Visual assessment of the percentage damage to the plant was carried out 1 day and 6 days from application.
(§5) Damage was assessed as wilting, desiccation or any other kind of visual injury in comparison to the untreated control (water only).

Stellaria media [2] = assay: as above; format: in vivo
Experimental: as §1, §2, §3, §4, §5

Taraxacum officinale = assay: as above; format: in vivo
Experimental: as §1, §2, §3, §4, §5

Poa annua [3] = assay: Example 2: alcohol ethoxylate adjuvants without glyphosate, visual % damage, tracksprayer 300 l/ha; format: in vivo
Excerpt: (§6) The effect of different types of alcohol ethoxylate (branched—Genapol X-series, and unbranched—Genapol O-series, differing degrees of ethoxylation, see Table 3 below for more details), on unwanted vegetation (broadleaf weed and grass species), in the absence of glyphosate, was investigated and compared to untreated (water only) control weeds.
(§7) Troughs (measuring 16 cm by 13 cm by 5 cm) were filled with local field soil. Seeds of Veronica persica, Stellaria media, Trifolium repens and Poa annua were sown 24 days before application of test samples. Plants were grown in the glasshouse at 18 to 20° C. and 60% relative humidity. Application of alcohol ethoxylate test samples was carried out using a tracksprayer, spraying at a rate of 300 l/ha. Plants were kept in glasshouse and visual assessment of the estimated percentage damage to the plant was carried out 1, 7, and 14 days from application.
as §5

Stellaria media [4] = assay: as above; format: in vivo
Excerpt: as §6, §7, §5

Trifolium repens = assay: as above; format: in vivo
Excerpt: as §6, §7, §5

Veronica persica = assay: as above; format: in vivo
Excerpt: as §6, §7, §5

Dandelion = assay: Example 3: branched chain alcohol ethoxylates in admixture with glyphosate, visual % damage, 600 l/ha; format: in vivo; conditions: adjuvant where present 5% w/v
Experimental: (§8) The effects of different branched chain alcohol ethoxylates in admixture with glyphosate on both Dandelions and a mixture of grasses were investigated.
(§9) Dandelion samples and a mixture of grasses obtained from a meadow environment were planted into square 20 cm pots and kept and grown on in glasshouse for at least 2 weeks (18 to 20° C., 60% relative humidity).
(§10) Application of branched chain alcohol ethoxylate was carried out using a tracksprayer, spraying at a rate of 600 l/ha.
(§11) Visual assessment of the estimated percentage damage to the plant was carried out 1, 6, 13, and 20 days from application.
as §5

Grass mix = assay: as above; format: in vivo, mixture of grasses; conditions: adjuvant where present 5% w/v
Experimental: as §8, §9, §10, §11, §5

[5] = system: broadleaf weeds and grasses; assay: Example 1: overall statement on adjuvants alone; format: in vivo; conditions: 1 and 6 days after treatment, adjuvant alone
Experimental: as §1, §2, §3, §4, §5

[6] = system: broadleaf weed and grass species; assay: Example 2: overall statement on alcohol ethoxylates without glyphosate; format: in vivo; conditions: absence of glyphosate
Excerpt: as §6, §7, §5

[7] = system: Dandelions and a mixture of grasses; assay: Example 3: overall statement, Dandelions and mixture of grasses; format: in vivo; conditions: absence of glyphosate, 5% w/v
Experimental: as §8, §9, §10, §11, §5

[8] = system: broadleaf weeds and grasses; assay: Example 4: overall statement, broadleaf weeds and grasses; format: in vivo; conditions: 2.5% w/v in admixture with glyphosate (Weedbuster)
Excerpt: The effect on broadleaf weeds and grasses of different concentrations of Genapol™ X060 (iso-tridecyl alcohol polyglycol ether with 6 moles of ethoxylation) in admixture with glyphosate was investigated.
Troughs (measuring 55 cm by 9 cm by 8.5 cm) were filled with local field soil. Seeds of Taraxacum officinale, Urtica dioica, Trifolium repens and Poa annua were sown 41 days before application of test samples, and seeds of Stellaria media, Veronica persica, Agropyron repens and Lolium multiflorum were sown 24 days before application of test samples. Plants were grown in the glasshouse at 18 to 20° C. and 60% relative humidity. One week before application of test samples, troughs were placed outside (but covered).
Application of test samples was carried out using a tracksprayer, spraying at a rate of 300 l/ha. Treated plants were kept outside and visual assessment of the percentage damage to the plants was carried out at 1, 7, 14, and 21 days after application.
as §5

“Iso-tridecyl alcohol polyglycol ether with 6 moles of ethoxylation [GenapolX060]” was tested, and the “avg % damage 1 DAA Poa annua” value (Poa annua [1]; adjuvant 1.25% w/v) was 45%, the “avg % damage 6 DAA Poa annua” value (Poa annua [1]; adjuvant 1.25% w/v) was 50% and the “avg % damage 1 DAA Poa annua” value (Poa annua [1]; adjuvant 2.5% w/v) was 55%. The “avg % damage 6 DAA Poa annua” value (Poa annua [1]; adjuvant 2.5% w/v) was 70%, the “avg % damage 1 DAA Poa annua” value (Poa annua [1]; adjuvant 5% w/v) was 75% and the “avg % damage 6 DAA Poa annua” value (Poa annua [1]; adjuvant 5% w/v) was 80%. For the same substance, the “avg % damage 1 DAA Poa annua” value (Poa annua [1]; adjuvant 10% w/v) was 70%, the “avg % damage 6 DAA Poa annua” value (Poa annua [1]; adjuvant 10% w/v) was 80% and the “avg % damage 1 DAA Stellaria media” value (Stellaria media [2]; adjuvant 1.25% w/v) was 25%. For the same substance, the “avg % damage 6 DAA Stellaria media” value (Stellaria media [2]; adjuvant 1.25% w/v) was 35%, the “avg % damage 1 DAA Stellaria media” value (Stellaria media [2]; adjuvant 2.5% w/v) was 30% and the “avg % damage 6 DAA Stellaria media” value (Stellaria media [2]; adjuvant 2.5% w/v) was 40%. The “avg % damage 1 DAA Stellaria media” value (Stellaria media [2]; adjuvant 5% w/v) was 35%, the “avg % damage 6 DAA Stellaria media” value (Stellaria media [2]; adjuvant 5% w/v) was 65% and the “avg % damage 1 DAA Stellaria media” value (Stellaria media [2]; adjuvant 10% w/v) was 60%. The “avg % damage 6 DAA Stellaria media” value (Stellaria media [2]; adjuvant 10% w/v) was 85%, the “avg % damage 1 DAA Taraxacum officinale” value (Taraxacum officinale; adjuvant 1.25% w/v) was 5% and the “avg % damage 6 DAA Taraxacum officinale” value (Taraxacum officinale; adjuvant 1.25% w/v) was 20%. For the same substance, the “avg % damage 1 DAA Taraxacum officinale” value (Taraxacum officinale; adjuvant 2.5% w/v) was 10%, the “avg % damage 6 DAA Taraxacum officinale” value (Taraxacum officinale; adjuvant 2.5% w/v) was 20% and the “avg % damage 1 DAA Taraxacum officinale” value (Taraxacum officinale; adjuvant 5% w/v) was 30%. For the same substance, the “avg % damage 6 DAA Taraxacum officinale” value (Taraxacum officinale; adjuvant 5% w/v) was 40%, the “avg % damage 1 DAA Taraxacum officinale” value (Taraxacum officinale; adjuvant 10% w/v) was 45% and the “avg % damage 6 DAA Taraxacum officinale” value (Taraxacum officinale; adjuvant 10% w/v) was 35%. For the same substance, the “mean % damage 1 daa Poa annua” value (Poa annua [3]; adjuvant 1% w/v) was 20%, the “mean % damage 7 daa Poa annua” value (Poa annua [3]; adjuvant 1% w/v) was 30% and the “mean % damage 14 daa Poa annua” value (Poa annua [3]; adjuvant 1% w/v) was 10%. For the same substance, the “mean % damage 1 daa Poa annua” value (Poa annua [3]; adjuvant 1.5% w/v) was 20%, the “mean % damage 7 daa Poa annua” value (Poa annua [3]; adjuvant 1.5% w/v) was 40% and the “mean % damage 14 daa Poa annua” value (Poa annua [3]; adjuvant 1.5% w/v) was 10%. For the same substance, the “mean % damage 1 daa Poa annua” value (Poa annua [3]; adjuvant 2% w/v) was 40%, the “mean % damage 7 daa Poa annua” value (Poa annua [3]; adjuvant 2% w/v) was 50% and the “mean % damage 14 daa Poa annua” value (Poa annua [3]; adjuvant 2% w/v) was 15%. For the same substance, the “mean % damage 1 daa Poa annua” value (Poa annua [3]; adjuvant 2.5% w/v) was 40%, the “mean % damage 7 daa Poa annua” value (Poa annua [3]; adjuvant 2.5% w/v) was 50% and the “mean % damage 14 daa Poa annua” value (Poa annua [3]; adjuvant 2.5% w/v) was 0%. For the same substance, the “mean % damage 1 daa Stellaria media” value (Stellaria media [4]; adjuvant 1% w/v) was 5%, the “mean % damage 7 daa Stellaria media” value (Stellaria media [4]; adjuvant 1% w/v) was 5% and the “mean % damage 14 daa Stellaria media” value (Stellaria media [4]; adjuvant 1% w/v) was 0%. The “mean % damage 1 daa Stellaria media” value (Stellaria media [4]; adjuvant 1.5% w/v) was 10%, the “mean % damage 7 daa Stellaria media” value (Stellaria media [4]; adjuvant 1.5% w/v) was 10% and the “mean % damage 14 daa Stellaria media” value (Stellaria media [4]; adjuvant 1.5% w/v) was 0%. For the same substance, the “mean % damage 1 daa Stellaria media” value (Stellaria media [4]; adjuvant 2% w/v) was 10%, the “mean % damage 7 daa Stellaria media” value (Stellaria media [4]; adjuvant 2% w/v) was 30% and the “mean % damage 14 daa Stellaria media” value (Stellaria media [4]; adjuvant 2% w/v) was 10%. The “mean % damage 1 daa Stellaria media” value (Stellaria media [4]; adjuvant 2.5% w/v) was 20%, the “mean % damage 7 daa Stellaria media” value (Stellaria media [4]; adjuvant 2.5% w/v) was 40% and the “mean % damage 14 daa Stellaria media” value (Stellaria media [4]; adjuvant 2.5% w/v) was 20%. The “mean % damage 1 daa Trifolium repens” value (Trifolium repens; adjuvant 1% w/v) was 40%, the “mean % damage 7 daa Trifolium repens” value (Trifolium repens; adjuvant 1% w/v) was 40% and the “mean % damage 14 daa Trifolium repens” value (Trifolium repens; adjuvant 1% w/v) was 0%. The “mean % damage 1 daa Trifolium repens” value (Trifolium repens; adjuvant 1.5% w/v) was 60%, the “mean % damage 7 daa Trifolium repens” value (Trifolium repens; adjuvant 1.5% w/v) was 50% and the “mean % damage 14 daa Trifolium repens” value (Trifolium repens; adjuvant 1.5% w/v) was 0%. For the same substance, the “mean % damage 1 daa Trifolium repens” value (Trifolium repens; adjuvant 2% w/v) was 70%, the “mean % damage 7 daa Trifolium repens” value (Trifolium repens; adjuvant 2% w/v) was 60% and the “mean % damage 14 daa Trifolium repens” value (Trifolium repens; adjuvant 2% w/v) was 0%. The “mean % damage 1 daa Trifolium repens” value (Trifolium repens; adjuvant 2.5% w/v) was 70%, the “mean % damage 7 daa Trifolium repens” value (Trifolium repens; adjuvant 2.5% w/v) was 60% and the “mean % damage 14 daa Trifolium repens” value (Trifolium repens; adjuvant 2.5% w/v) was 5%. The “mean % damage 1 daa Veronica persica” value (Veronica persica; adjuvant 1% w/v) was 10%, the “mean % damage 7 daa Veronica persica” value (Veronica persica; adjuvant 1% w/v) was 10% and the “mean % damage 14 daa Veronica persica” value (Veronica persica; adjuvant 1% w/v) was 5%. The “mean % damage 1 daa Veronica persica” value (Veronica persica; adjuvant 1.5% w/v) was 20%, the “mean % damage 7 daa Veronica persica” value (Veronica persica; adjuvant 1.5% w/v) was 20% and the “mean % damage 14 daa Veronica persica” value (Veronica persica; adjuvant 1.5% w/v) was 10%. The “mean % damage 1 daa Veronica persica” value (Veronica persica; adjuvant 2% w/v) was 70%, the “mean % damage 7 daa Veronica persica” value (Veronica persica; adjuvant 2% w/v) was 70% and the “mean % damage 14 daa Veronica persica” value (Veronica persica; adjuvant 2% w/v) was 50%. For the same substance, the “mean % damage 1 daa Veronica persica” value (Veronica persica; adjuvant 2.5% w/v) was 60%, the “mean % damage 7 daa Veronica persica” value (Veronica persica; adjuvant 2.5% w/v) was 40% and the “mean % damage 14 daa Veronica persica” value (Veronica persica; adjuvant 2.5% w/v) was 40%. The “% Damage 1 daa Dandelion” value (Dandelion) was 40%, the “% Damage 6 daa Dandelion” value (Dandelion) was 50% and the “% Damage 13 daa Dandelion” value (Dandelion) was 30%. For the same substance, the “% Damage 20 daa Dandelion” value (Dandelion) was 20%, the “% Damage 1 daa Grass mix” value (Grass mix) was 20% and the “% Damage 6 daa Grass mix” value (Grass mix) was 50%. The “% Damage 13 daa Grass mix” value (Grass mix) was 40%, the “% Damage 20 daa Grass mix” value (Grass mix) was 40% and the “visual symptoms of phytotoxicity” value [5] was “comparatively high level of visual symptoms of phytoxicity”. For the same substance, the “course of damage over time (recovery)” value [6] was “the level of damage decreases from day 14 onwards”, the “course of damage over time (recovery)” value [7] was “the level of damage decreases from day 13 onwards” and the “rapid symptomology versus Roundup and Weedbuster” value [8] was “more rapid symptomology against all weeds in comparison to Roundup”.

Source: patent publication US20130252816A1, “HERBICIDAL COMPOSITION AND USE THEREOF” (Syngenta Crop Protection LLC, priority 2010, published 2013)
